Source: US20210260213A1, “METHODS AND COMPOSITIONS FOR DELIVERY OF A THERAPEUTIC AGENT” (priority 2018, published 2021)
Converted amounts (≈) assume the structure as drawn.

Experiments:
[1] = published studies; cited from earlier work
MRSA = test: Filter disc zone of inhibition on Mueller Hinton plates; assay type: cell-based
Description: (§1) Antimicrobial activity of the released drug was tested on Pseudomonas aeruginosa and MRSA cultures and compared to standard concentrations of antibiotic using filter disks on Mueller Hinton plates. The released antibiotics or controls were added onto sterile filter discs (created using a standard hole punch on filter paper, autoclaved). One colony of each bacteria was selected and (pseudomonas or MRSA) placed into a bacteria culture tube and were incubated in 5 mL of LB broth and placed on 37° C. shaker for approximately 4-6 hours.
(§2) 500 μL of the incubated bacteria was then added to the Mueller-Hinton Plates (which have been acclimated to room temperature for at least 2 hours) and a plastic disposable spreader was used to carefully spread the bacteria broth onto the plates and allowed to settle for approximately 5-10 minutes. The filter discs were then placed on top of the bacterial plate and the plates inverted and placed in the 37° C. incubator overnight. After 24 hours, the plates were removed and the zones of inhibition measured and photographed. Parafilm was used to wrap around each plate to keep the plates at room temperature.

Pseudomonas aeruginosa = test: as above; assay type: cell-based; settings: control study
Description: as §1, §2

Compound	minimum inhibitory concentration [1] [mg/L]	zone of inhibition at 10 µg/disc (MRSA; Staphylococcus aureus, MRSA, control, 10 μg on a filter disc) [mm]	amount sufficient to inhibit growth (MRSA; control study, filter disc) [µg]	zone of inhibition (MRSA; drug released from the HA polymer, every collection between 1 hour and 7 days)	amount sufficient to inhibit growth (Pseudomonas aeruginosa) [µg]
CN[C@H](CC(C)C)C(=O)N[C@H]1C(=O)N[C@@H](CC(N)=O)C(=O)N[C@H]2C(=O)N[C@H]3C(=O)N[C@H](C(=O)N[C@H](C(=O)O)c4cc(O)cc(O)c4-c4cc3ccc4O)[C@H](O)c3ccc(c(Cl)c3)Oc3cc2cc(c3O[C@@H]2O[C@H](CO)[C@@H](O)[C@H](O)[C@H]2O[C@H]2C[C@](C)(N)[C@H](O)[C@H](C)O2)Oc2ccc(cc2Cl)[C@H]1O [Vancomycin]	2 (≈ 1.38 µM)	8	10	up to 15 mm	
O=C(O)c1cn(C2CC2)c2cc(N3CCNCC3)c(F)cc2c1=O [Ciprofloxacin]	0.5 (≈ 1.51 µM)				5
